Read-outs that look alike come from different tables or passages of the source.
Experiments:
[1] = molecular target: T1, recombinant human LIMK2 fragment 1-638 (Homo sapiens, UniProt P53671); test: LIMK2 kinase assay (Compound 1), anti-phospho-Ser3-cofilin detection; format: biochemical; conditions: 360 μM ATP; GST-cofilin 1 substrate; chemiluminescence detection
T1 construct: recombinant human LIMK2 fragment 1-638; 6His (N); purchased Carna Biosciences 09-106
Protocol: Compounds were tested in a LIMK2 assay performed in a final volume of 12.5 μl containing 1.5 μl of compound or equivalent amount of DMSO as control, 1 μl (6.25 ng) of N-terminal 6His-tagged recombinant human LIMK2 fragment 1-638 (Carna Biosciences #09-106, in 20 mM MOPS pH=7.0, 1 mM EDTA, 0.01% NP-40, 5% glycerol, 0.1% 2-mercaptoethanol, 1 mg·mL^−1 Bovine Serum Albumin) and a mixture containing 8 mM MOPS pH=7.0, 200 μM EDTA, 110 μM of recombinant GST-cofilin 1, 10 mM MgCl2, and 360 μM ATP. Assays were performed at 30° C. for 10 min before termination by the addition of 40 μl of Laemmli buffer. Samples are then diluted into 1500 μL H2O and 100 μL are then diluted with 200 μL TBS. 5 μL are then spotted on a PVDF membrane (Merck-Millipore Immobilon P IPVH00010). After 20 min incubation RT, membrane was blocked with TBS, 0.1% Tween 20 and 5% BSA for 1 h RT under agitation. The membrane was rinsed 3 times 10 min RT under agitation with TBS, 0.1% Tween-20 (TBST) and then 1 h RT with anti-phospho-Ser3-cofilin (Cell Signaling Technology #3313, 1/1000 dilution) antibody diluted in TBS, 0.1% Tween 20 and 1% BSA. The membrane is then rinsed 3 times 10 min RT under agitation in TBST and incubated for 1 hour with anti-rabbit secondary antibody, horseradish peroxidase conjugated (Jackson Immunoresearch #711-036-152) under agitation at room temperature. […] IC50 LIMK2 is then determined.

[2] = molecular target: T2, AMPKα1(h) (Homo sapiens, UniProt Q13131); test: KinaseProfiler panel: AMPKα1(h); format: biochemical; conditions: residual activity, 5 μM inhibitor, Km ATP
T2 construct: purchased Merck-Millipore (KinaseProfiler panel service)
Protocol: (§1) Kinase selectivity was performed on a panel of 58 recombinant protein kinases. The assays were performed in the presence of 5 μM inhibitor at the respective Km ATP for each kinase, using the KinaseProfiler panel service (Merck-Millipore). Residual activity measured in the presence of […] inhibitor is expressed as the percent of activity determined in the absence of inhibitor.

[3] = molecular target: T3, CaMKIβ(h) (Homo sapiens, UniProt Q6P2M8); test: KinaseProfiler panel: CaMKIβ(h); format: biochemical; conditions: residual activity, 5 μM inhibitor, Km ATP
T3 construct: purchased Merck-Millipore (KinaseProfiler panel service)
Protocol: as §1

[4] = molecular target: T4, cKit(D816V)(h) (Homo sapiens, UniProt P10721, D816V); test: KinaseProfiler panel: cKit(D816V)(h); format: biochemical; conditions: residual activity, 5 μM inhibitor, Km ATP
T4 construct: purchased Merck-Millipore (KinaseProfiler panel service)
T4 sequence (P10721 26-976 D816V): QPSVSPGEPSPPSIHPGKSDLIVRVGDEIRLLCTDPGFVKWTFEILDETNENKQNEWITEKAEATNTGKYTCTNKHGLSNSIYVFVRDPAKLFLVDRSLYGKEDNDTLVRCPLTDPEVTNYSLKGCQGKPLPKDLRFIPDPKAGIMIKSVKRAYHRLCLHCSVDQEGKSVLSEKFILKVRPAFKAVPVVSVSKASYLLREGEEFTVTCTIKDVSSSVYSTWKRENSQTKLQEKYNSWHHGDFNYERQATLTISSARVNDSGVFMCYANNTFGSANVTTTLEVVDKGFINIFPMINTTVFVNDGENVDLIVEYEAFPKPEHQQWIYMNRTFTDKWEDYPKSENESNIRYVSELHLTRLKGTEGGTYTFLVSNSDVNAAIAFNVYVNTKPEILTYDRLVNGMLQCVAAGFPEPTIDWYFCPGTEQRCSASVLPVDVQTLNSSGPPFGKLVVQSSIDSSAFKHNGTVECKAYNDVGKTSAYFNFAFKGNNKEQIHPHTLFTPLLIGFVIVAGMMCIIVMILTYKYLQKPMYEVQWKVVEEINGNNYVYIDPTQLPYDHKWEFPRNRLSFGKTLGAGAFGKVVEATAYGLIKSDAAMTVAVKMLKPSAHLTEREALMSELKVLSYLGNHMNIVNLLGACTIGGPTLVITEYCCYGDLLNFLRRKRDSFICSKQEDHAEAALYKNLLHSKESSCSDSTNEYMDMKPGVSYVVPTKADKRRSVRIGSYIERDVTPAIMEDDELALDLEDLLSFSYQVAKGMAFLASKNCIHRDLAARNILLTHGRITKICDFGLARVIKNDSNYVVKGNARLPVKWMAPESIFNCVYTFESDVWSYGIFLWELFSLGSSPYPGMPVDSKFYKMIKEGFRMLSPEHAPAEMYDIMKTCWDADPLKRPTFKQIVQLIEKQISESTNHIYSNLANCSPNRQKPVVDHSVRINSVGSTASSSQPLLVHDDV
Protocol: as §1

[5] = molecular target: T5, cKit(V560G)(h) (Homo sapiens, UniProt P10721, V560G); test: KinaseProfiler panel: cKit(V560G)(h); format: biochemical; conditions: residual activity, 5 μM inhibitor, Km ATP
T5 construct: purchased Merck-Millipore (KinaseProfiler panel service)
T5 sequence (P10721 26-976 V560G): as the sequence (P10721 26-976 D816V) above, with V535G, V791D counted along it
Protocol: as §1

[6] = molecular target: T6, FGFR1(h) (Homo sapiens, UniProt P11362); test: KinaseProfiler panel: FGFR1(h); format: biochemical; conditions: residual activity, 5 μM inhibitor, Km ATP
T6 construct: purchased Merck-Millipore (KinaseProfiler panel service)
T6 sequence (P11362 22-822): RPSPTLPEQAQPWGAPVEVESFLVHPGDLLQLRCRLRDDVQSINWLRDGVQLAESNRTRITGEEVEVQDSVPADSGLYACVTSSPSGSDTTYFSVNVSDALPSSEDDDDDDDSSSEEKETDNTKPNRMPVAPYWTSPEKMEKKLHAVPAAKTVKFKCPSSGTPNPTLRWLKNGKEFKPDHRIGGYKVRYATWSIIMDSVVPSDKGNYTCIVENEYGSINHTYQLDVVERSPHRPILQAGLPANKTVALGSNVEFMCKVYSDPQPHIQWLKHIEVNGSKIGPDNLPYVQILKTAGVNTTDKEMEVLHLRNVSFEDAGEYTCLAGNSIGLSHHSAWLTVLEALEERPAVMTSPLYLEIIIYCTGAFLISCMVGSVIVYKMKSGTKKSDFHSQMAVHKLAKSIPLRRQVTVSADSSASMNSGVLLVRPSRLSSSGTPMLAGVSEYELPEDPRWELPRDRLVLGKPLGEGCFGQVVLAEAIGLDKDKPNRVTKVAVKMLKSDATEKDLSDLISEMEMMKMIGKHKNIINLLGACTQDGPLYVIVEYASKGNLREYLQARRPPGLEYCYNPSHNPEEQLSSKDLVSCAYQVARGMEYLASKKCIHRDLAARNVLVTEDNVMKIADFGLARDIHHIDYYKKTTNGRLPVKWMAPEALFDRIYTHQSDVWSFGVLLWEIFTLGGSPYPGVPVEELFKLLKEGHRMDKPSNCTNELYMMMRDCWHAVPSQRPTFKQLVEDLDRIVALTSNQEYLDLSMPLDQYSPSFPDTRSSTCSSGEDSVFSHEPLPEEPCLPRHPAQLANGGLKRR
Protocol: as §1

[7] = molecular target: T7, Flt3(D835Y)(h) (Homo sapiens, UniProt P36888, D835Y); test: KinaseProfiler panel: Flt3(D835Y)(h); format: biochemical; conditions: residual activity, 5 μM inhibitor, Km ATP
T7 construct: purchased Merck-Millipore (KinaseProfiler panel service)
Protocol: as §1

[8] = molecular target: T8, Flt3(h) (Homo sapiens, UniProt P36888); test: KinaseProfiler panel: Flt3(h); format: biochemical; conditions: residual activity, 5 μM inhibitor, Km ATP
T8 construct: purchased Merck-Millipore (KinaseProfiler panel service)
Protocol: as §1

[9] = molecular target: T9, Flt4(h) (Homo sapiens, UniProt P35916); test: KinaseProfiler panel: Flt4(h); format: biochemical; conditions: residual activity, 5 μM inhibitor, Km ATP
T9 construct: purchased Merck-Millipore (KinaseProfiler panel service)
Protocol: as §1

[10] = molecular target: T10, LKB1(h) (Homo sapiens, UniProt Q15831); test: KinaseProfiler panel: LKB1(h); format: biochemical; conditions: residual activity, 5 μM inhibitor, Km ATP
T10 construct: purchased Merck-Millipore (KinaseProfiler panel service)
Protocol: as §1

[11] = molecular target: T11, MRCKα(h) (Homo sapiens, UniProt Q5VT25); test: KinaseProfiler panel: MRCKα(h); format: biochemical; conditions: residual activity, 5 μM inhibitor, Km ATP
T11 construct: purchased Merck-Millipore (KinaseProfiler panel service)
Protocol: as §1

[12] = molecular target: T12, PAK1(h) (Homo sapiens, UniProt Q13153); test: KinaseProfiler panel: PAK1(h); format: biochemical; conditions: residual activity, 5 μM inhibitor, Km ATP
T12 construct: purchased Merck-Millipore (KinaseProfiler panel service)
T12 sequence (Q13153 whole entry): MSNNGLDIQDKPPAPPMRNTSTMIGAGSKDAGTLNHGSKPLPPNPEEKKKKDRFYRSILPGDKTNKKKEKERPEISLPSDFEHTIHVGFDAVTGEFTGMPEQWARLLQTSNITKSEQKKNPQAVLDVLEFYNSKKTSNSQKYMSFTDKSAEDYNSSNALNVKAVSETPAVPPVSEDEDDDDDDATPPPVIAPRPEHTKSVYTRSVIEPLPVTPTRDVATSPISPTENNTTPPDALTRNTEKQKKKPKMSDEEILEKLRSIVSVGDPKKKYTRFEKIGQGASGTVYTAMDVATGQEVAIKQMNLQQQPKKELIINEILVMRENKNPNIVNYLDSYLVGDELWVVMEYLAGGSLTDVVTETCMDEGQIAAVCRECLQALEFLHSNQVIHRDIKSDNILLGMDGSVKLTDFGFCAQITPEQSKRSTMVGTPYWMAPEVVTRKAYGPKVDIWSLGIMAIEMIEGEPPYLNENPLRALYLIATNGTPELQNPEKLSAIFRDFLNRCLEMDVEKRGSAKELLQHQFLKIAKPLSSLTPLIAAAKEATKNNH
Protocol: as §1

[13] = molecular target: T13, PAK6(h) (Homo sapiens, UniProt Q9NQU5); test: KinaseProfiler panel: PAK6(h); format: biochemical; conditions: residual activity, 5 μM inhibitor, Km ATP
T13 construct: purchased Merck-Millipore (KinaseProfiler panel service)
Protocol: as §1

[14] = molecular target: T14, PDGFRα(h) (Homo sapiens, UniProt P16234); test: KinaseProfiler panel: PDGFRα(h); format: biochemical; conditions: residual activity, 5 μM inhibitor, Km ATP
T14 construct: purchased Merck-Millipore (KinaseProfiler panel service)
Protocol: as §1

[15] = molecular target: T15, PKCα(h) (Homo sapiens, UniProt P17252); test: KinaseProfiler panel: PKCα(h); format: biochemical; conditions: residual activity, 5 μM inhibitor, Km ATP
T15 construct: purchased Merck-Millipore (KinaseProfiler panel service)
Protocol: as §1

[16] = molecular target: T16, Ret(h) (Homo sapiens, UniProt P07949); test: KinaseProfiler panel: Ret(h); format: biochemical; conditions: residual activity, 5 μM inhibitor, Km ATP
T16 construct: purchased Merck-Millipore (KinaseProfiler panel service)
T16 sequence (P07949 29-1114): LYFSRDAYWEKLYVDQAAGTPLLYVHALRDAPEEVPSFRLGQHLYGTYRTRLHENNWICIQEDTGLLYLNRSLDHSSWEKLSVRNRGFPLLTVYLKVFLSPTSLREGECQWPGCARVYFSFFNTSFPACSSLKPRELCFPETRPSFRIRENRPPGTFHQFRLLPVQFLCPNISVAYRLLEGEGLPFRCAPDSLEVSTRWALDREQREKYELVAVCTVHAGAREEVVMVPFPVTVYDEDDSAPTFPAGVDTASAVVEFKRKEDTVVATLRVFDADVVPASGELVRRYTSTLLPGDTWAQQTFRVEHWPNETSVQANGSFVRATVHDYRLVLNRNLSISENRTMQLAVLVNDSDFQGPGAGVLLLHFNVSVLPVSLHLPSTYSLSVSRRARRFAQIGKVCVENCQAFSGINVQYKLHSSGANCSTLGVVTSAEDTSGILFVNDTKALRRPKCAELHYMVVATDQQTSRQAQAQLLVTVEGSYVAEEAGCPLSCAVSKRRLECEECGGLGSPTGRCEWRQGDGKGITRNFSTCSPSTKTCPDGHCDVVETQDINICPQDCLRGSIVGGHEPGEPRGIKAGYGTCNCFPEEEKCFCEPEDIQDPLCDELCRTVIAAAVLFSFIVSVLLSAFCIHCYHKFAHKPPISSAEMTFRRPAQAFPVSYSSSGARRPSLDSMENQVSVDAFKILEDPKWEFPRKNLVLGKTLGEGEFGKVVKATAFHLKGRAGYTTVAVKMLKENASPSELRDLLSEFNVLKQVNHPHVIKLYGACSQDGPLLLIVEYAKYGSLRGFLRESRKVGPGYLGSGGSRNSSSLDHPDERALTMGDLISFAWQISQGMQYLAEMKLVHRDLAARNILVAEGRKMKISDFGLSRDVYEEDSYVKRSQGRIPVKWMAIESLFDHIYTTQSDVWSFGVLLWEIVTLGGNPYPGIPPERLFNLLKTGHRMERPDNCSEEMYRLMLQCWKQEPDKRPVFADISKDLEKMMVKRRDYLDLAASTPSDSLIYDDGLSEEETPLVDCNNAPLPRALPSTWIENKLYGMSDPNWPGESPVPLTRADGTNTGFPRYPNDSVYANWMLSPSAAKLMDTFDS
Protocol: as §1

[17] = molecular target: B-Raf(h) (Homo sapiens, UniProt P15056); test: KinaseProfiler panel: B-Raf(h); format: biochemical; set-up: purchased Merck-Millipore (KinaseProfiler panel service); conditions: residual activity, 5 μM inhibitor, Km ATP
Sequence of B-Raf(h) (P15056 whole entry): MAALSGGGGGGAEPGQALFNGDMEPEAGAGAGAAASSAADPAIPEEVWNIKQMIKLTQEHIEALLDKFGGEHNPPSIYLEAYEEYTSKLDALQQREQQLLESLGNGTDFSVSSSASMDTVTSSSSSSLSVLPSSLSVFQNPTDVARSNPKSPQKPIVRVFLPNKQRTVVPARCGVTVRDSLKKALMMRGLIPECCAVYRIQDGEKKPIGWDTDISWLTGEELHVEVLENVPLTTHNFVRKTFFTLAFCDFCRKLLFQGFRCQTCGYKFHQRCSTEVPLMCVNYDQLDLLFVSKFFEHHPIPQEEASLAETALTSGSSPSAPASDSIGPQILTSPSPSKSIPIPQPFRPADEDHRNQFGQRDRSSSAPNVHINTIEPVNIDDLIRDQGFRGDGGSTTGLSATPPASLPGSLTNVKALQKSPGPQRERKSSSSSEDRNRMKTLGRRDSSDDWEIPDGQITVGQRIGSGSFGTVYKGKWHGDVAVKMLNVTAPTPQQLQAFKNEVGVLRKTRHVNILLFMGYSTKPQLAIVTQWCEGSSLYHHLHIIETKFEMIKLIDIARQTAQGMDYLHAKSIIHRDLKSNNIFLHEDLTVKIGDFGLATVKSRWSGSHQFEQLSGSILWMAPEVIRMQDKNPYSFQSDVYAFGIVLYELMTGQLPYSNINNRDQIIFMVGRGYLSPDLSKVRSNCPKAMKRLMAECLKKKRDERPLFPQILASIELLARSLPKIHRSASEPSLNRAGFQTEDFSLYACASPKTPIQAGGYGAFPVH
Protocol: as §1

[18] = test system: P-MEK/Total MEK; test: Western blot MEK1 phosphorylation, THP-1; format: cell-based; conditions: for IC50: Homo sapiens, read-out: IC50 P-MEK/Total MEK
Protocol: Cells were maintained at 37° C. with 5% CO2.
In a 6 wells plate (Falcon 353046), 2·10^6 cells in 1.5 mL medium are treated for 2 h with compounds. Cells are then collected and cell lysis is performed at 4° C. using RIPA buffer supplemented with protease inhibitors cocktail (Sigma-Aldrich P8340) and phosphatase inhibitors cocktail (Sigma-Aldrich P5726). Following centrifugation 30 min 15000 g 4° C., supernatants are mixed with Laemmli buffer and denaturation is performed by heating 5 min 95° C. 10 μL of samples are subjected to electrophoresis on 15% SDS-PAGE. After electro-transfer (Mini Transblot, Bio-Rad), the PVDF membrane (Merck-Millipore Immobilon P IPVH00010) is blocked with Tris Buffered Saline, pH 7.4 (TBS) with 0.1% Tween 20 and 5% BSA for 1 h at room temperature under agitation. The membrane was rinsed 3 times 10 min at room temperature under agitation with TBS, 0.1% Tween-20 (TBST) and then 1 h at room temperature with anti-phospho-Ser218/222-MEK1 (Merck-Millipore 07-461, 1/1000 dilution) antibody or anti-MEK1 (Merck-Millipore 07-641, 1/1000 dilution) diluted in TBS, 0.1% Tween 20 and 1% BSA. The membrane is then rinsed 3 times 10 min RT under agitation in TBST and incubated for 1 h with anti-rabbit secondary antibody, horseradish peroxidase conjugated (Jackson Immunoresearch #711-036-152) under agitation at room temperature. After three washes 10 min at room temperature in TBST, the detection of total or phosphorylated cofilin was performed using chemiluminescence kit ECL™ Plus (GE Healthcare RPN2132). For each concentration of compound, ratio between phosphorylated cofilin and total cofilin is determined. This ratio is then expressed as percentage of control ratio (i.e., ratio from DMSO treated cells). IC50 P-MEK/Total MEK is then determined.
Selectivity ratios are calculated by dividing the IC50 P-MEK/Total MEK value (μM) by the IC50 Phospho-Ser3-Cofilin/Total Cofilin value (μM).

For `CC(C)(C)c1nc(-c2cccc(NS(=O)(=O)c3c(F)cccc3F)c2F)c(-c2ccnc(Nc3ccccc3)n2)s1` [Compound 1, N-(3-(2-(tert-butyl)-5-(2-(phenylamino)pyrimidin-4-yl)thiazol-4-yl)-2-fluorophenyl)-2,6-difluorobenzenesulfonamide], the IC50 [1] was 100 to 500 nM, the activity at 5 µM [2] was no less than 50% and the activity at 5 µM [3] was no less than 50%. It also gave an activity at 5 µM [4] of no less than 50%, an activity at 5 µM [5] of 10 to 50% and an activity at 5 µM [6] of no less than 50%. For the same molecule, the activity at 5 µM [7] was no less than 50%, the activity at 5 µM [8] was no less than 50% and the activity at 5 µM [9] was 3 to 10%. The activity at 5 µM [10] was no less than 50%, the activity at 5 µM [11] was no less than 50% and the activity at 5 µM [12] was no less than 50%. It also gave an activity at 5 µM [13] of no less than 50%, an activity at 5 µM [14] of no less than 50% and an activity at 5 µM [15] of no less than 50%. For the same molecule, the activity at 5 µM [16] was 10 to 50% and the activity at 5 µM [17] was 3 to 10%.
In the case of `O=S(=O)(Nc1cccc(-c2nc(CCO)sc2-c2ccnc(Nc3ccccc3)n2)c1F)c1c(F)cccc1F` [Compound 8, 2,6-difluoro-N-(2-fluoro-3-(2-(2-hydroxyethyl)-5-(2-(phenylamino)pyrimidin-4-yl)thiazol-4-yl)phenyl)benzenesulfonamide], the IC50 ([18]; THP-1 cells, 2 h) is reported as 200 to 1000 nM and the Selectivity ratio ([18]; THP-1 cells, IC50 P-MEK/Total MEK divided by IC50 Phospho-Ser3-Cofilin/Total Cofilin) is reported as 80.
In the case of `CNC(=O)Cc1nc(-c2cccc(NS(=O)(=O)c3c(F)cccc3F)c2F)c(-c2ccnc(Nc3ccccc3)n2)s1` [Compound 9, 2-(4-(3-(2,6-difluorophenylsulfonamido)-2-fluorophenyl)-5-(2-(phenylamino)pyrimidin-4-yl)thiazol-2-yl)-N-methylacetamide], the IC50 ([18]; THP-1, 2 h) is reported as 200 to 1000 nM.
